Reference: patent US10519133B2, “Vinyl compounds as FGFR and VEGFR inhibitors” (MEDSHINE DISCOVERY INC., priority 2015, dated 2019)
Like-named read-outs stand apart in the source and are kept apart here.

Key:
[1] = molecular target: T1, FGFR1 (Homo sapiens, UniProt P11362); test: Z′-LYTE Detection Kinase Assay, in vitro enzymatic activity; type: biochemical; conditions: 0.6 nM FGFR1, 2 uM Tyr4 peptide, 10 uM ATP, 60 min 23° C.
T1 construct: purchased Invitrogen PV4105
Experimental: To measure enzyme activity by Z′-LYTE™ Detection Kinase Assay, and to evaluate the inhibitory effect of the compounds on FGFR1 using IC50 value of the compounds as an indicator. […]
Reaction Buffer: 50 mM Hepes (pH 7.5), 10 mM MgCl2, 1 mM EGTA, 0.01% Brij-35, 1 mM DTT, 2 mM MnCl2 0.6 nM FGFR1, 2 uM Tyr4 peptide and 10 uM ATP in reaction buffer (50 mM Hepes, pH 7.5, 10 mM MgCl2, 0.01% BRIJ-35, 1 mM EGTA, 4 mM MnCl2, 2 mM DTT). a. Diluting the compounds with DMSO to 10 mM, 3-fold dilution, 11 gradients, duplicate wells. b. Diluting the compound by 1:25 into middle plate at Bravo Automatic Liquid Station, then transferring 2.5 ul to the reaction plate to ensure the final DMSO concentration to be 1%. c. Transferring 5 ul of enzyme/substrate buffer into each well d. Using Multidrop Liquid Workstation to sequentially add ATP solution to each well e. Centrifuging at 1000 rpm for 1 minute f. Placing the reaction plate in an incubator at 23° C. to react for 60 min. a. Preparing a 1:128 mixture of Development Regent B and Development Buffer b. Adding 5 ul to each well and centrifuging at 1000 rpm for 1 minute c. Placing the reaction plate in a thermostat (23° C.) after centrifuging for 90 minutes, removing and reading on Envision (Perkin Elmer) Plate Reader
D. Analyzing Data: Analyzing Data Using XLFIT (IDBS) and Calculating IC50 Values for the Compounds.

[2] = system: SNU-16 cell; test: CellTiter-Glo Luminescent Cell Viability Assay; type: cell-based; conditions: Homo sapiens, 72 h; SNU-16 cells, 3 days; read-out: SNU-16 IC50 (CellTiter-Glo Detection)
Experimental: To detect the change of intracellular ATP by CellTiter-Glo® Luminescent Cell Viability Assay, and to evaluate the inhibitory effect of the compounds on in vitro cell SNU-16 using IC50 value of the compounds as an indicator.
Cell line: SNU-16 cell strain d. Diluting SNU-16 with medium, adding the diluted cells to the 384 plate (Greiner. 781090) (50 μL/well, SNU-16 cell 750 cells/well) with multi-channel pipette. Placing the cell plate in a 37° C., 5% CO2 incubator overnight. […]
g. Diluting the compound with DMSO to 10 mM, 3-fold dilution, 11 gradients, duplicate wells. h. Transferring 2.4 ul of the compound to the middle plate added with 47.6 ul of cell culture media at Bravo Automatic Liquid Station. Then transferring 5 ul to the cell culture plate (55 ul) to ensure the final DMSO concentration to be 0.4%. […]
i. Placing the cell culture plate in 5% CO2 incubator at 37° C. to continue cultivating for 3 days. d. Balancing Cell Titer Glo Reagent to room temperature e. Taking 30 ul of Cell Titer Glo Reagent in a 1:2 ratio into each well and gently mixing for 2 minutes f. Placing the cell culture plate in an incubator (23° C.) for 10 minutes, taking out and centrifuging at 1000 rpm for 1 minute g. Reading on Envision (Perkin Elmer) Plate Reader.
H. Analyzing Data: Analyzing the Data Using XLFIT (IDBS) and Calculating IC50 Values for the Compounds.

[3] = Pharmacokinetics after intravenous and intragastric administration (Experimental Example 4); type: in vivo; conditions: female Balb/c nude mice; for bioavailability / AUC(0-t) / Cmax / half-life / clearance / Vd: mouse, plasma; for Cmax: read-out: peak concentration (Cmax); for half-life: read-out: elimination half-life (T1/2) (converted); for clearance: read-out: plasma clearance (CL); for Vd: read-out: steady state apparent volume of distribution (Vdss)
Experimental: Experimental Procedure: A clear solution of the test compound in 20% DMSO/60% PEG400/20% water at 1 mg/ml was injected via the caudal vein into female Balb/c nude mice (fasted overnight, 7-9 weeks of age) with a dose of 1 mg/kg. The test compound suspended in 0.5% Methocel/0.2% Tween 80 at 1 mg/ml was administered by intragastric administration to female Balb/c nude mice (fasted overnight, 7-9 weeks of age) with a dose of 10 mg/kg. About 30 μL of blood collected from the jugular vein or caudal vein at 0.0833, 0.25, 0.5, 1.0, 2.0, 4.0, 8.0 and 24 h after administration in both groups of animals, were placed in anticoagulation tube with EDTA-K2 and the plasma was centrifuged. Plasma concentrations were determined by LC-MS/MS and related pharmacokinetic parameters were calculated using the non-compartmental model linear logarithmic trapezoidal method using WinNonlin™ Version 6.3 (Pharsight, Mountain View, Calif.) pharmacokinetic software.

[4] = po, single intragastric administration 10 mg/kg
[5] = po, single intragastric administration 10 mg/kg, read-out: AUC0-last
[6] = single intravenous injection 1.0 mg/kg, read-out: area under the plasma concentration curve (AUC0-last)
[7] = single intravenous injection 1.0 mg/kg
[8] = single intragastric administration 10 mg/kg

T1 sequence (P11362 22-822): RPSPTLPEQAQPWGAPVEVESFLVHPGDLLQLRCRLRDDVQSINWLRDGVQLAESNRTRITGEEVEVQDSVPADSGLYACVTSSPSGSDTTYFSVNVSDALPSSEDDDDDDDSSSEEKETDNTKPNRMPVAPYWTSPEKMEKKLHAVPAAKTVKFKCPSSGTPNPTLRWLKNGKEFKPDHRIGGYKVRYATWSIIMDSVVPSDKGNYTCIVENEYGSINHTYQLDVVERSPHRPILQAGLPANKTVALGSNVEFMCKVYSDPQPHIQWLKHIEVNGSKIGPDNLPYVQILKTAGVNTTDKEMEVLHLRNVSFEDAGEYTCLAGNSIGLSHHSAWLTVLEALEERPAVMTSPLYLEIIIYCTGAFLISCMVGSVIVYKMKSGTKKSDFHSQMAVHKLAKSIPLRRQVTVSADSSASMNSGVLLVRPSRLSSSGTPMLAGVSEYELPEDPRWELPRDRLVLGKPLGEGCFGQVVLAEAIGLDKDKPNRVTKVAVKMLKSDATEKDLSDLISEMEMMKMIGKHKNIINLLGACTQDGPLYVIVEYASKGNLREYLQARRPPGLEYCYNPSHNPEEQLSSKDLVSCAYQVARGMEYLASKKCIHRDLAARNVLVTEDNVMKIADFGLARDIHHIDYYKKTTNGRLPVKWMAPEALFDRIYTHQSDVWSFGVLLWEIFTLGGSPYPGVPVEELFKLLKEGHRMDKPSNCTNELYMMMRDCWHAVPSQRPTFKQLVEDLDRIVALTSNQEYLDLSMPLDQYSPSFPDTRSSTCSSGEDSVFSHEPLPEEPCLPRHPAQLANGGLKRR

Structure (SMILES)	IC50 [1]	other results
CC(Oc1ccc2[nH]nc(/C(F)=C/c3ccc(CN4CCOCC4)nc3)c2c1)c1c(Cl)cncc1Cl (racemic) [Example 1]	50 to 1000 nM	IC50 [2]: 10 to 1000 nM
C[C@H](Oc1ccc2[nH]nc(/C=C(\F)c3ccc(CNC4CCOCC4)nc3)c2c1)c1c(Cl)cncc1Cl [Example 17]	50 to 1000 nM	IC50 [2]: ≤ 10 nM
C[C@@H](Oc1ccc2[nH]nc(/C=C(\F)c3ccc(CN4CCC(CO)CC4)nc3)c2c1)c1c(Cl)cncc1Cl [Example 21]	≤ 10 nM	IC50 [2]: ≤ 10 nM
C[C@@H](Oc1ccc2[nH]nc(/C=C(\F)c3ccc(CN4CCN(CC(=O)O)CC4)nc3)c2c1)c1c(Cl)cncc1Cl [Example 29]	≤ 10 nM	IC50 [2]: 10 to 1000 nM
C[C@@H](Oc1ccc2[nH]nc(/C=C(\F)c3ccc(CN4CCNCC4)nc3)c2c1)c1c(Cl)cncc1Cl [Example 32]	≤ 10 nM	IC50 [2]: ≤ 10 nM
CNC(=O)C1CCN(Cc2ccc(/C=C/c3n[nH]c4ccc(OC(C)c5c(Cl)cncc5Cl)cc34)cc2)CC1 (stereo not drawn) [Example 103]	≤ 10 nM	–
CCN(Cc1ccc(/C=C/c2n[nH]c3ccc(OC(C)c4c(Cl)cncc4Cl)cc23)cc1)C1CCCCC1 (stereo not drawn) [Example 104]	50 to 1000 nM	–
CC(Oc1ccc2[nH]nc(/C=C/c3ccc(CN4CCC(O)C4)cc3)c2c1)c1c(Cl)cncc1Cl (stereo not drawn) [Example 106]	≤ 10 nM	–
CC(Oc1ccc2[nH]nc(/C=C/c3ccc(CN4CCOC[C@@H]4C)cc3)c2c1)c1c(Cl)cncc1Cl (stereo partly drawn) [Example 107]	50 to 1000 nM	–
CC1CN(Cc2ccc(/C=C/c3n[nH]c4ccc(OC(C)c5c(Cl)cncc5Cl)cc34)cc2)CC(C)O1 (stereo not drawn) [Example 108]	50 to 1000 nM	–
CC(=O)N1CCN(Cc2ccc(/C=C/c3n[nH]c4ccc(OC(C)c5c(Cl)cncc5Cl)cc34)cc2)CC1 (stereo not drawn) [Example 109]	≤ 10 nM	–
CC1CN(C(=O)c2ccc(-c3n[nH]c4ccc(OC(C)c5c(Cl)cncc5Cl)cc34)cc2)CCN1 (stereo not drawn) [Example 112]	50 to 1000 nM	–
CC(Oc1ccc2[nH]nc(-c3ccc(C(=O)N4CCOCC4)cc3)c2c1)c1c(Cl)cncc1Cl (stereo not drawn) [Example 113]	50 to 1000 nM	–
CC(Oc1ccc2[nH]nc(-c3ccc(C(=O)N4CCC(O)CC4)cc3)c2c1)c1c(Cl)cncc1Cl (stereo not drawn) [Example 114]	50 to 1000 nM	–
CC(Oc1ccc2[nH]nc(-c3ccc(C(=O)N4CCC(N(C)C)CC4)cc3)c2c1)c1c(Cl)cncc1Cl (stereo not drawn) [Example 115]	10 to 50 nM	–
CC(Oc1ccc2[nH]nc(-c3ccc(C(=O)N4CCN(C)CC4)cc3)c2c1)c1c(Cl)cncc1Cl (stereo not drawn) [Example 116]	50 to 1000 nM	–
CC(Oc1ccc2[nH]nc(-c3ccc(C(=O)N4CCN(C(C)C)CC4)cc3)c2c1)c1c(Cl)cncc1Cl (stereo not drawn) [Example 117]	50 to 1000 nM	–
CC(Oc1ccc2[nH]nc(-c3ccc(C(=O)N4CCC(O)C4)cc3)c2c1)c1c(Cl)cncc1Cl (stereo not drawn) [Example 119]	50 to 1000 nM	–
CC(=O)N(C)C1CCN(C(=O)c2ccc(-c3n[nH]c4ccc(OC(C)c5c(Cl)cncc5Cl)cc34)cc2)C1 (stereo not drawn) [Example 120]	50 to 1000 nM	–
CC(Oc1ccc2[nH]nc(-c3ccc(C(=O)N4CC[C@@H](N(C)C)C4)cc3)c2c1)c1c(Cl)cncc1Cl (stereo partly drawn) [Example 121]	50 to 1000 nM	–
CC(Oc1ccc2[nH]nc(-c3ccc(C(=O)NCCN4CCOCC4)cc3)c2c1)c1c(Cl)cncc1Cl (stereo not drawn) [Example 125]	50 to 1000 nM	–

Structure (SMILES)	IC50 [1]	other results
CC(Oc1ccc2[nH]nc(-c3ccc(C(=O)N4CCNCC4C)cc3)c2c1)c1c(Cl)cncc1Cl (stereo not drawn) [Example 126]	50 to 1000 nM	–
C[C@@H](Oc1ccc2[nH]nc(-c3cccc(C(=O)NC4CCOCC4)c3)c2c1)c1c(Cl)cncc1Cl [Example 127]	50 to 1000 nM	–
C[C@@H](Oc1ccc2[nH]nc(-c3cccc(C(=O)N4CC[C@H](O)C4)c3)c2c1)c1c(Cl)cncc1Cl [Example 129]	50 to 1000 nM	–
C[C@@H](Oc1ccc2[nH]nc(-c3cccc(C(=O)N4CCC(CO)CC4)c3)c2c1)c1c(Cl)cncc1Cl [Example 130]	50 to 1000 nM	–
C[C@@H](Oc1ccc2[nH]nc(/C=C/c3cccc(CNC4CCOCC4)c3)c2c1)c1c(Cl)cncc1Cl [Example 132]	≤ 10 nM	–
C[C@@H](Oc1ccc2[nH]nc(/C=C/c3cccc(CN4CCC(O)C4)c3)c2c1)c1c(Cl)cncc1Cl (stereo partly drawn) [Example 134]	≤ 10 nM	–
C[C@@H](Oc1ccc2[nH]nc(/C=C/c3cccc(CN4CCC(CO)CC4)c3)c2c1)c1c(Cl)cncc1Cl [Example 135]	≤ 10 nM	–
C[C@@H](Oc1ccc2[nH]nc(/C=C/c3ccc(CN4CCOCC4)nc3)c2c1)c1c(Cl)cncc1Cl [Example 137]	≤ 10 nM	–
C[C@@H](Oc1ccc2[nH]nc(/C=C/c3ccc(CN4CC[C@H](O)C4)nc3)c2c1)c1c(Cl)cncc1Cl [Example 138]	≤ 10 nM	–
C[C@@H](Oc1ccc2[nH]nc(/C=C/c3ccc(CN4CCC(CO)CC4)nc3)c2c1)c1c(Cl)cncc1Cl [Example 140]	10 to 50 nM	–
C[C@@H](Oc1ccc2[nH]nc(/C=C(\F)c3ccc(CNC4CCOCC4)nc3)c2c1)c1ccncc1Cl [Example 142]	10 to 50 nM	–
CC(Oc1ccc2[nH]nc(/C=C(\F)c3ccc(CNC4CCOCC4)nc3)c2c1)c1ccc(F)cc1Cl (stereo not drawn) [Example 143]	50 to 1000 nM	–
CC(Oc1ccc2[nH]nc(/C=C(\F)c3ccc(CNC4CCOCC4)nc3)c2c1)c1cc(F)cc(F)c1 (stereo not drawn) [Example 144]	≤ 10 nM	–
CC(Oc1ccc2[nH]nc(/C=C(\F)c3ccc(CNC4CCOCC4)nc3)c2c1)c1c(F)cccc1Cl (stereo not drawn) [Example 145]	50 to 1000 nM	–
CC(Oc1ccc2[nH]nc(/C=C(\F)c3ccc(CNC4CCOCC4)nc3)c2c1)c1c(F)cncc1F (stereo not drawn) [Example 146]	≤ 10 nM	–
CC(Oc1ccc2[nH]nc(/C=C(\F)c3ccc(CNC4CCOCC4)nc3)c2c1)c1c(F)cccc1F (stereo not drawn) [Example 147]	50 to 1000 nM	–
CCN1CCC(C(C)Oc2ccc3[nH]nc(/C=C/c4ccc(CN5CCOCC5)cc4)c3c2)CC1 (stereo not drawn) [Example 148]	50 to 1000 nM	–
CC(Oc1ccc2[nH]nc(/C=C/c3ccc(CN4CCOCC4)cc3)c2c1)C1CCN(C)CC1 (stereo not drawn) [Example 149]	50 to 1000 nM	–
C[C@@H](Oc1ccc2[nH]nc(/C=C/c3ccc(CNC4CCOCC4)nc3)c2c1)c1c(Cl)cncc1Cl [WX_015, reference compound]	–	bioavailability [3, 4]: 11.4%; AUC(0-t) [3, 5]: 0.439 ± 0.202 µM·h; Cmax [3, 4]: 134 ± 68.3 nM; AUC(0-t) [3, 6]: 0.386 ± 0.0883 µM·h; half-life [3, 7]: 0.971 ± 0.461 h; clearance [3, 7]: 83.5 ± 18.5 mL/min/kg; Vd [3, 7]: 5.31 ± 0.268 L/kg; peak time [3, 8]: 1.50 ± 0.866 h
C[C@@H](Oc1ccc2[nH]nc(/C=C(\F)c3ccc(CNC4CCOCC4)nc3)c2c1)c1c(Cl)cncc1Cl [WX_018]	–	bioavailability [3, 4]: 30.1%; AUC(0-t) [3, 5]: 1.65 ± 0.0401 µM·h; Cmax [3, 4]: 479 ± 62.9 nM; AUC(0-t) [3, 6]: 0.567 ± 0.0194 µM·h; half-life [3, 7]: 1.57 ± 0.0286 h; clearance [3, 7]: 53 ± 1.69 mL/min/kg; Vd [3, 7]: 5.45 ± 0.491 L/kg; peak time [3, 8]: 2.00 h
